{"source": "patent US6479493B1", "about": "“Methods for treatment of type I diabetes” (Cell Pathways, Inc., priority 2001, dated 2002)", "key": {"[1]": {"tested_on": "TNF-α secreted by TPA-induced U937 cells", "assay": "TNF-α immunoassay on media of TPA-treated U937 cells", "assay_type": "cell-based", "details": "cell culture media (FIG. 12)", "procedure": "One function of macrophages is to modulate the activity of other inflammatory cells through various cytokine molecules.\nTNF-α levels in the cell culture media were determined by using the TNF-α Immunoassay from R&D Systems (Cat. #DTA50) according to the manufacturer's protocol."}, "rats [2]": {"tested_on": "rats", "assay": "acute toxicity study in rats", "details": "rat, in vivo"}, "rats [3]": {"tested_on": "rats", "assay": "seven-day dose-range finding study in rats", "assay_type": "in vivo, rat", "details": "7 days"}, "rats [4]": {"tested_on": "rats", "assay": "28-day study in rats", "assay_type": "in vivo, rat", "procedure": "A 28-day study in rats was also carried out at 0, 50, 500 and 2000 mg/kg/day."}, "[5]": {"details": "28 days, 50, 500 and 2000 mg/kg/day"}}, "note": "Structures can show the parent of a compound that is named as a salt.", "data": [{"compound": "CC1=C(CC(=O)NCc2ccccc2)c2cc(F)ccc2/C1=C\\c1ccncc1", "note": "[Example 38, (Z)-5-Fluoro-2-methyl-(4-pyridylidene)-3-(N-benzyl)indenylacetamide Hydrochloride]", "values": [{"measurement": "level of TNF-α secreted", "setting": "[1]", "value": "significantly reduced"}, {"measurement": "body weight gain", "setting": "rats [2]; ip, 1000 mg/kg", "value": "reduced body weight gain"}, {"measurement": "necropsy findings", "setting": "rats [2]; ip, 1000 mg/kg", "value": "mesenteric adhesions seen in some animals"}, {"measurement": "body weight gains", "setting": "rats [2]; po, 2000 mg/kg", "value": "slightly reduced"}, {"measurement": "signs of toxicity", "setting": "rats [3]; 50 mg/kg/day", "value": "no observable signs of toxicity"}, {"measurement": "treatment-related effects", "setting": "rats [3]; 500 mg/kg/day", "value": "limited to an increase in absolute and relative liver weights in female rats"}, {"measurement": "treatment-related effects", "setting": "rats [3]; 2000 mg/kg/day", "value": "labored breathing and/or abnormal respiratory sounds, decreased weights gains and food consumption in male rats, and increased liver weights in female rats"}, {"measurement": "hematology, blood chemistry, microscopic pathology", "setting": "rats [3]; any dose level (50, 500, 2000 mg/kg/day)", "value": "No hematological or blood chemistry changes nor any microscopic pathology changes"}, {"measurement": "macroscopic tissue changes at necropsy", "setting": "rats [4]; 28 days", "value": "No macroscopic tissue changes"}, {"measurement": "liver weights", "setting": "rats [4]; 28 days, 2000 mg/kg/day", "value": "statistically significant increase in liver weights"}, {"measurement": "thyroid weights", "setting": "rats [4]; 28 days, 2000 mg/kg/day", "value": "statistically significant increases in thyroid weights"}, {"measurement": "body weight changes, ophthalmoscopic examinations, hematological and blood chemistry values, urinalysis", "setting": "rats [4]; [5]", "value": "unremarkable"}, {"measurement": "clinical observations", "setting": "rats [4]; [5]", "value": "no abnormal clinical observations"}, {"measurement": "histopathological evaluation of tissues", "setting": "rats [4]; 28 days, generally a small number of animals at 2000 mg/kg/day", "value": "traces of follicular cell hypertrophy, increased numbers of mitotic figures (suggestive of possible cell proliferation) in the thyroid gland and mild centrilobular hypertrophy in the liver"}, {"measurement": "liver and thyroid weight increases at the lower doses", "setting": "rats [4]; 28 days, lower doses (50, 500 mg/kg/day)", "value": "not statistically significant"}]}]}
